{"source": "patent US7932249B2", "about": "“Olanzapine pamoate dihydrate” (Eli Lilly and Company, priority 2005, dated 2011)", "type_in_all_cases": "physicochemical", "key": {"[1]": {"experiment": "Solubility in aqueous solution (comparative statement)"}, "[2]": {"experiment": "In vitro dissolution test at higher paddle speed (100 rpm)", "settings": "100 rpm paddle speed, 0.05% CTAB pH 6.8 USP buffer, 37° C.", "description": "Another dissolution experiment was performed in order to ensure that the media conditions used to generate the profiles in Table 4 were not solubility limiting. This experiment was performed using the same samples and media conditions but at a higher paddle speed to provide the data listed in Table 5."}, "[3]": {"experiment": "Comparative in vitro dissolution test, 50 rpm paddle speed", "settings": "for Average % Olanzapine Release (n = 3): USP Apparatus 2, 50 rpm, 0.05% CTAB pH 6.8 USP buffer, 37° C., 1000 mL", "description": "In-vitro dissolution testing was performed to compare the olanzapine release rates for olanzapine pamoate monohydrate and the olanzapine pamoate dihydrate."}}}
{"smiles": "Cc1cc2c(s1)Nc1ccccc1N=C2N1CCN(C)CC1.O.O.O=C(O)c1cc2ccccc2c(Cc2c(O)c(C(=O)O)cc3ccccc23)c1O", "note": "[Olanzapine Pamoate Dihydrate, 2-methyl-4-(4-methyl-1-piperazinyl)-10H-thieno[2,3-b][1,5]benzodiazepine pamoate dihydrate]", "values": [{"measurement": "Solubility in aqueous solution compared with olanzapine pamoate monohydrate", "setting": "[1]", "value": "substantially less soluble in aqueous solution than olanzapine pamoate monohydrate"}, {"measurement": "% Olanzapine Release (n = 1)", "setting": "[2]; 24 hrs", "value": 95, "unit": "%"}, {"measurement": "% Olanzapine Release (n = 1)", "setting": "[2]; 36 hrs", "value": 97, "unit": "%"}, {"measurement": "Average % Olanzapine Release (n = 3)", "setting": "[3]; 0.25 hr", "value": 19, "unit": "%"}, {"measurement": "Average % Olanzapine Release (n = 3)", "setting": "[3]; 0.5 hr", "value": 26, "unit": "%"}, {"measurement": "Average % Olanzapine Release (n = 3)", "setting": "[3]; 0.75 hr", "value": 30, "unit": "%"}, {"measurement": "Average % Olanzapine Release (n = 3)", "setting": "[3]; 1 hr", "value": 33, "unit": "%"}, {"measurement": "Average % Olanzapine Release (n = 3)", "setting": "[3]; 2 hrs", "value": 40, "unit": "%"}, {"measurement": "Average % Olanzapine Release (n = 3)", "setting": "[3]; 4 hrs", "value": 45, "unit": "%"}, {"measurement": "Average % Olanzapine Release (n = 3)", "setting": "[3]; 6 hrs", "value": 47, "unit": "%"}, {"measurement": "Average % Olanzapine Release (n = 3)", "setting": "[3]; 24 hrs", "value": 59, "unit": "%"}, {"measurement": "Release rate of olanzapine compared with olanzapine pamoate monohydrate", "setting": "[3]; aqueous conditions of Table 3, 50 rpm", "value": "substantially lower release rate of olanzapine than the olanzapine pamoate monohydrate"}]}
{"smiles": "Cc1cc2c(s1)Nc1ccccc1N=C2N1CCN(C)CC1.O=C(O)c1cc2ccccc2c(Cc2c(O)c(C(=O)O)cc3ccccc23)c1O", "note": "[Olanzapine Pamoate Monohydrate, 2-methyl-4-(4-methyl-1-piperazinyl)-10H-thieno[2,3-b][1,5]benzodiazepine pamoate, reference compound]", "values": [{"measurement": "% Olanzapine Release (n = 1)", "setting": "[2]; 24 hrs", "value": 99, "unit": "%"}, {"measurement": "% Olanzapine Release (n = 1)", "setting": "[2]; 36 hrs", "value": 99, "unit": "%"}, {"measurement": "Average % Olanzapine Release (n = 3)", "setting": "[3]; 0.25 hr", "value": 27, "unit": "%"}, {"measurement": "Average % Olanzapine Release (n = 3)", "setting": "[3]; 0.5 hr", "value": 39, "unit": "%"}, {"measurement": "Average % Olanzapine Release (n = 3)", "setting": "[3]; 0.75 hr", "value": 46, "unit": "%"}, {"measurement": "Average % Olanzapine Release (n = 3)", "setting": "[3]; 1 hr", "value": 52, "unit": "%"}, {"measurement": "Average % Olanzapine Release (n = 3)", "setting": "[3]; 2 hrs", "value": 62, "unit": "%"}, {"measurement": "Average % Olanzapine Release (n = 3)", "setting": "[3]; 4 hrs", "value": 73, "unit": "%"}, {"measurement": "Average % Olanzapine Release (n = 3)", "setting": "[3]; 6 hrs", "value": 77, "unit": "%"}, {"measurement": "Average % Olanzapine Release (n = 3)", "setting": "[3]; 24 hrs", "value": 83, "unit": "%"}]}
